{"source": "patent US8173361B2", "about": "“Method of determining metabolism of a test agent” (The General Hospital Corporation, priority 2003, dated 2012)", "origin": "cited, not measured here", "conditions": "treatment of chronic hepatitis B; clinical tests suspended"}
{"smiles": "O=c1[nH]c(=O)n([C@@H]2O[C@H](CO)[C@@H](O)[C@@H]2F)cc1I", "note": "[fialuridine]", "values": [{"measurement": "drug-related toxicity in clinical tests", "result": "drug-related liver failure leading to death in some patients"}]}
